The values that follow are results of earlier work, collected in US8748695B2, “Molecular markers linked to PPO inhibitor tolerance in soybeans” (Pioneer Hi-Bred International, Inc., priority 2008, dated 2014).

In data set [1] the test system is soybean cultivars. As to conditions: in vivo.

Regarding `Cc1nn(-c2cc(CC(Cl)C(=O)O)c(Cl)cc2F)c(=O)n1C(F)F` (centres unmarked) [Carfentrazone], the half-life result is “approximately 4 days”.
On to `Cc1nn(-c2cc(NS(C)(=O)=O)c(Cl)cc2Cl)c(=O)n1C(F)F` [sulfentrazone], for which the “Growth Reduction Index” value in data set [1] is reported as 20%.
